According to PubChem BioAssay (NCI):
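Protocol summary: plate cells (96-well), add compound at 5 concentrations, incubate 48 h, interpolate endpoints linearly. GI50 = concentration required for 50% inhibition of growth. The concentration for full growth arrest is given as TGI.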

What was measured:
Experiment in all cases: inhibition of tumour cell growth, NCI panel, 48 h
[1] = test system: HCT-116 colon
[2] = test system: IGROV1 ovarian
[3] = test system: HOP-92 NSCLC
[4] = test system: KM12 colon
[5] = test system: U251 CNS
[6] = test system: SK-MEL-28 melanoma
[7] = test system: MCF7 breast
[8] = test system: OVCAR-8 ovarian
[9] = test system: CAKI-1 renal
[10] = test system: NCI-H460 lung
[11] = test system: MOLT-4 leukemia
[12] = test system: NCI-H522 lung
[13] = test system: NCI-H23 lung
[14] = test system: NCI/ADR-RES ovarian
[15] = test system: A498 renal
[16] = test system: EKVX NSCLC
[17] = test system: SW-620 colon
[18] = test system: SNB-19 CNS
[19] = test system: RPMI-8226 leukemia
[20] = test system: MDA-MB-231 breast
[21] = test system: SN12C renal
[22] = test system: SK-OV-3 ovarian
[23] = test system: RXF 393 renal
[24] = test system: NCI-H226 lung
[25] = test system: OVCAR-5 ovarian
[26] = test system: BT-549 breast
[27] = test system: T-47D breast
[28] = test system: HCC-2998 colon
[29] = test system: SK-MEL-2 melanoma
[30] = test system: SF-295 CNS
[31] = test system: PC-3 prostate
[32] = test system: ACHN renal
[33] = test system: SF-539 CNS
[34] = test system: UACC-257 melanoma
[35] = test system: OVCAR-4 ovarian
[36] = test system: HOP-62 NSCLC
[37] = test system: SF-268 CNS
[38] = test system: MDA-MB-435
[39] = test system: MDA-N
[40] = test system: UO-31 renal
[41] = test system: HT29 colon
[42] = test system: DU-145 prostate
[43] = test system: UACC-62 melanoma
[44] = test system: OVCAR-3 ovarian
[45] = test system: 786-0 renal
[46] = test system: COLO 205 colon
[47] = test system: HCT-15 colon
[48] = test system: SR leukemia
[49] = test system: SK-MEL-5 melanoma
[50] = test system: TK-10 renal
[51] = test system: SNB-75 CNS
[52] = test system: M14 melanoma
[53] = test system: A549 NSCLC
[54] = test system: HL-60(TB) leukemia
[55] = test system: LOX IMVI melanoma
[56] = test system: K-562 leukemia
[57] = test system: CCRF-CEM leukemia
[58] = test system: MALME-3M melanoma
[59] = test system: HS 578T breast

COC(=O)Cn1c(=O)oc2nc(-c3ccccc3)cc(C(F)(F)F)c21
TGI [1]: > 100 µM | TGI [2]: > 100 µM | TGI [3]: 89.3 µM | TGI [4]: > 100 µM | TGI [5]: > 100 µM | TGI [6]: > 100 µM | TGI [7]: > 100 µM | TGI [8]: > 100 µM | TGI [9]: > 100 µM | TGI [10]: > 100 µM | TGI [11]: 71.3 µM | TGI [12]: > 100 µM | TGI [13]: > 100 µM | TGI [14]: > 100 µM | TGI [15]: > 100 µM | TGI [16]: > 100 µM | TGI [17]: > 100 µM | TGI [18]: > 100 µM | TGI [19]: 95.8 µM | TGI [20]: > 100 µM | TGI [21]: > 100 µM | TGI [22]: > 100 µM | TGI [23]: > 100 µM | TGI [24]: > 100 µM | TGI [25]: > 100 µM | TGI [26]: > 100 µM | TGI [27]: > 100 µM | TGI [28]: > 100 µM | TGI [29]: > 100 µM | TGI [30]: > 100 µM | TGI [31]: > 100 µM | TGI [32]: > 100 µM | TGI [33]: > 100 µM | TGI [34]: > 100 µM | TGI [35]: > 100 µM | TGI [36]: > 100 µM | TGI [37]: > 100 µM | TGI [38]: > 100 µM | TGI [39]: > 100 µM | TGI [40]: > 100 µM | TGI [41]: > 100 µM | TGI [42]: > 100 µM | TGI [43]: > 100 µM | TGI [44]: > 100 µM | TGI [45]: > 100 µM | TGI [46]: > 100 µM | TGI [47]: > 100 µM | TGI [48]: > 100 µM | TGI [49]: 61.9 µM | TGI [50]: > 100 µM | TGI [51]: > 100 µM | TGI [52]: > 100 µM | TGI [53]: > 100 µM

CCOC(=O)N/N=C(\CC)OCC
TGI [54]: > 100 µM | TGI [1]: > 100 µM | TGI [2]: > 100 µM | TGI [55]: > 100 µM | TGI [4]: > 100 µM | TGI [7]: > 100 µM | TGI [8]: > 100 µM | TGI [9]: > 100 µM | TGI [10]: > 100 µM | TGI [11]: > 100 µM | TGI [12]: > 100 µM | TGI [14]: > 100 µM | TGI [16]: > 100 µM | TGI [18]: > 100 µM | TGI [56]: > 100 µM | TGI [20]: > 100 µM | TGI [21]: > 100 µM | TGI [22]: > 100 µM | TGI [23]: > 100 µM | TGI [25]: > 100 µM | TGI [26]: > 100 µM | TGI [27]: > 100 µM | TGI [28]: > 100 µM | TGI [29]: > 100 µM | TGI [57]: > 100 µM | TGI [30]: > 100 µM | TGI [31]: > 100 µM | TGI [32]: > 100 µM | TGI [58]: > 100 µM | TGI [33]: > 100 µM | TGI [59]: > 100 µM | TGI [34]: > 100 µM | TGI [36]: > 100 µM | TGI [37]: > 100 µM | TGI [39]: > 100 µM | TGI [40]: > 100 µM | TGI [42]: > 100 µM | TGI [43]: > 100 µM | TGI [44]: > 100 µM | TGI [45]: > 100 µM | TGI [46]: > 100 µM | TGI [47]: > 100 µM | TGI [48]: > 100 µM | TGI [49]: > 100 µM | TGI [50]: > 100 µM | TGI [51]: > 100 µM | TGI [52]: > 100 µM | TGI [53]: > 100 µM

CN(C)c1ccccc1[CH2][Ga]([Cl])[CH2]c1ccccc1N(C)C
GI50 [54]: 2.7 µM | TGI [54]: 5.36 µM | GI50 [1]: 0.833 µM | TGI [1]: 2.17 µM | GI50 [2]: 1.29 µM | TGI [2]: 2.73 µM | GI50 [55]: 1.13 µM | TGI [55]: 3.18 µM | GI50 [3]: 0.416 µM | TGI [3]: 1.58 µM | GI50 [4]: 0.635 µM | TGI [4]: 2.24 µM | GI50 [5]: 1.16 µM | TGI [5]: 2.41 µM | GI50 [7]: 0.954 µM | TGI [7]: 2.67 µM | GI50 [8]: 1.47 µM | TGI [8]: 3.23 µM | GI50 [9]: 1.58 µM | TGI [9]: 3.94 µM | GI50 [10]: 1.76 µM | TGI [10]: 3.58 µM | GI50 [11]: 0.927 µM | TGI [11]: 5.37 µM | GI50 [12]: 1.41 µM | TGI [12]: 3.45 µM | GI50 [13]: 0.595 µM | TGI [13]: 2.06 µM | GI50 [14]: 1.87 µM | TGI [14]: 4.22 µM | GI50 [16]: 0.794 µM | TGI [16]: 2.24 µM | GI50 [17]: 1.76 µM | TGI [17]: 3.92 µM | GI50 [18]: 1.44 µM | TGI [18]: 2.86 µM | GI50 [56]: 1.46 µM | TGI [56]: 4.46 µM | GI50 [19]: 0.651 µM | TGI [19]: 3.63 µM | GI50 [20]: 1.31 µM | TGI [20]: 2.71 µM | GI50 [21]: 1.31 µM | TGI [21]: 2.58 µM | GI50 [22]: 1.71 µM | TGI [22]: 3.8 µM | GI50 [24]: 0.537 µM | TGI [24]: 1.95 µM | GI50 [25]: 1.35 µM | TGI [25]: 2.73 µM | GI50 [26]: 1.83 µM | TGI [26]: 3.29 µM | GI50 [27]: 1.39 µM | TGI [27]: 3.78 µM | GI50 [28]: 1.23 µM | TGI [28]: 2.88 µM | GI50 [29]: 1.13 µM | TGI [29]: 2.87 µM | GI50 [57]: 0.399 µM | TGI [57]: 4.82 µM | GI50 [30]: 0.964 µM | TGI [30]: 2.48 µM | GI50 [31]: 1.74 µM | TGI [31]: 3.63 µM | GI50 [32]: 1.43 µM | TGI [32]: 3.12 µM | GI50 [58]: 1.75 µM | TGI [58]: 3.32 µM | GI50 [33]: 1.7 µM | TGI [33]: 3.5 µM | GI50 [59]: 1.28 µM | TGI [59]: 5.79 µM | GI50 [34]: 1.51 µM | TGI [34]: 3.05 µM | GI50 [35]: 1.24 µM | TGI [35]: 3.07 µM | GI50 [36]: 1.21 µM | TGI [36]: 2.57 µM | GI50 [37]: 1.77 µM | TGI [37]: 3.3 µM | GI50 [38]: 1.61 µM | TGI [38]: 3.12 µM | GI50 [39]: 1.66 µM | TGI [39]: 3.08 µM | GI50 [41]: 0.583 µM | TGI [41]: 2.82 µM | GI50 [42]: 1.61 µM | TGI [42]: 3.2 µM | GI50 [43]: 0.717 µM | TGI [43]: 2.08 µM | GI50 [44]: 1.4 µM | TGI [44]: 3.65 µM | GI50 [45]: 1.38 µM | TGI [45]: 2.8 µM | GI50 [46]: 1.04 µM | TGI [46]: 2.36 µM | GI50 [47]: 0.698 µM | TGI [47]: 2.33 µM | GI50 [48]: 1.23 µM | TGI [48]: 4.69 µM | GI50 [49]: 1.22 µM | TGI [49]: 2.49 µM | GI50 [50]: 2.16 µM | TGI [50]: 4.7 µM | GI50 [51]: 1.41 µM | TGI [51]: 2.74 µM | GI50 [52]: 1.3 µM | TGI [52]: 2.85 µM | GI50 [53]: 1.44 µM | TGI [53]: 2.94 µM
